Data published in patent US12472166B2, “Inhibition of mycobacterial type VII secretion” (priority 2019, dated 2025).
Like-named read-outs stand apart in the source and are kept apart here.

Assays:
[1] = test system: M. marinum; type: cell-based
[2] = test system: M. tuberculosis; assay: microbe, parasite or virus in culture; type: cell-based; details: for IC50 / IC90: Mycobacterium tuberculosis; for IC50: 168 h, read-out: IC50 (μM) M.tb/REMA; for IC90: read-out: IC90 (μM) M.tb/REMA
[3] = human, microsomes, pH 7.4; for Compound remaining (%): 0.5 h
[4] = in vitro; details: human, microsomes, pH 7.4
[5] = test system: zebrafish embryos; details: in vivo
[6] = test system: M. tuberculosis H37Rv WT; assay: THP-1 macrophage infection study, CFU counting; type: cell-based, Mycobacterium tuberculosis
[7] = test system: M. marinum WT bacteria expressing rfp; details: 10 μM
Experimental: To assess anti-bacterial activity of the compounds in an animal model, zebra-fish embryos were infected by injection of WT M. marinum into the cardinal vein. The bacteria express rfp, which enables the quantification of infection in vivo by measuring red fluorescence. After injection of the bacteria into the fish, the infection was allowed to establish for 20 h. Then, the test compounds or DMSO control were added for three days before the infection was quantified by measuring fluorescence in each fish. […] Dechorionated zebra fish embryos were one day post fertilization infected by microinjection into the cardinal vein with 70 M. marinum WT bacteria expressing rfp. 20 h after infection, the compounds were added to the fish water at the indicated concentrations. After 4 days post infection the fish were imaged on a fluorescent microscope (A) and red pixels were quantified (B). As control served non-treated fish and non-infected fish. The fish water of all groups contained equal amounts of DMSO. Each data point represents a single fish. […] Statistical analysis was determined by ANOVA testing by comparing each group to the non-treated group of fish. p>0.05, not significant, not indicated. p<0.05=*, p<0.01=**, p<0.001=***.

[8] = replicating M. tuberculosis, seven days, 37° C.
[9] = concentration that reduced bacterial viability to lower than 10%

With CO[C@H]1/C=C/O[C@@]2(C)Oc3c(C)c(O)c4c(O)c(c(/C=N/N5CCN(C)CC5)c(O)c4c3C2=O)NC(=O)/C(C)=C\C=C\[C@H](C)[C@H](O)[C@@H](C)[C@@H](O)[C@@H](C)[C@H](OC(C)=O)[C@@H]1C [Rifampin, reference compound] the “bacterial viability (REMA) readout, control condition” value [1] was “negative”.
For COc1ccc(-c2nsc(SCC(=O)N3CCCCC3)n2)cc1 [Compound I-11], the IC50 [2, 8] was 0.531 µM and the IC90 [2, 9] was 1.25 µM.
O=C(CSc1nc(-c2ccc(Cl)cc2)ns1)NC1CCCC1 [Compound I-17] showed an IC50 [2, 8] of 0.21 µM and an IC90 [2, 9] of 2.5 µM.
With O=C(CSc1nc(-c2ccc(Cl)cc2)ns1)NCCC(F)(F)F [Compound I-37] the IC50 [2, 8] was 0.116 µM, the IC90 [2, 9] was 0.31 µM and the “Compound remaining (%)” value [3] was 55%. For the same molecule, the “Half-life” value [3] was 34.8 min and the CLint scaled [4] was 18 mL/min/kg.
CCNC(=O)CSc1nc(-c2ccccc2)ns1 [Compound I-10] showed an IC50 [2, 8] of 0.383 µM and an IC90 [2, 9] of 1.25 µM.
In the case of O=C(CSc1nc(-c2ccccc2)ns1)NCCC(F)(F)F [Compound I-35], the IC50 [2, 8] is reported as 0.224 µM, the IC90 [2, 9] is reported as 0.63 µM and the “Half-life” value ([3]; 15 μM) is reported as 48.6 min. For the same molecule, the “Compound remaining (%)” value [3] was 65% and the CLint scaled at 15 μM [4] was 12.8 mL/min/kg.
In the case of COc1ccc(-c2nsc(SCC(=O)N3CCOCC3)n2)cc1 [Compound I-15], the IC50 [2, 8] is reported as 0.121 µM and the IC90 [2, 9] is reported as 2.5 µM.
COc1ccc(-c2nsc(SCC(=O)Nc3cnccn3)n2)cc1 [Compound I-24] showed an IC50 [2, 8] of 4.1 µM and an IC90 [2, 9] of 2.5 µM.
In the case of COc1ccc(-c2nsc(SCC(=O)NCCC(F)(F)F)n2)cc1 [Compound I-34], the IC50 [2, 8] is reported as 0.038 µM and the IC90 [2, 9] is reported as 0.31 µM.
In the case of O=C(CSc1nc(-c2cccnc2)ns1)NC1CCCC1 [Compound I-19], the IC50 [2, 8] is reported as 0.502 µM and the IC90 [2, 9] is reported as 2.5 µM.
For O=C(COc1nc(-c2ccccc2)ns1)NC1CCCC1 [Compound I-33], the IC50 [2, 8] was 7.85 µM, the IC90 [2, 9] was 10 µM and the “Half-life” value ([3]; 15 μM) was 61.8 min. For the same molecule, the “Compound remaining (%)” value [3] was 72% and the CLint scaled at 15 μM [4] was 10.1 mL/min/kg.
Molecule COCCNC(=O)CSc1nc(-c2ccc(OC)cc2)ns1 [Compound I-4] has an IC50 [2, 8] of 0.133 µM and an IC90 [2, 9] of 0.63 µM.
Work on COc1ccc(-c2nsc(SCC(=O)OC3CCCC3)n2)cc1 [Compound I-25] yielded an IC50 [2, 8] of 0.526 µM and an IC90 [2, 9] of 5 µM.
Molecule O=C(CSc1nc(-c2ccccc2)no1)NC1CCCC1 [Compound I-28] has an IC50 [2] of 2.11 µM and an IC90 [2] of 5 µM.
Molecule CNC(=O)CSc1nc(-c2ccc(OC)cc2)ns1 [Compound I-27] has an IC50 [2, 8] of 1.85 µM and an IC90 [2, 9] of 5 µM.
Cc1cccc(-c2nsc(SCC(=O)N3CCCCC3)n2)c1 [Compound I-18, reference compound] gave an IC50 [2, 8] of 0.251 µM and an IC90 [2, 9] of 2.5 µM.
Cc1cccc(-c2nsc(SCC(=O)NC3CCCC3)n2)c1 [Compound I-16] gave an IC50 [2, 8] of 0.121 µM and an IC90 [2, 9] of 2.5 µM.
In the case of CCCNC(=O)CSc1nc(-c2ccc(Cl)cc2)ns1 [Compound I-36], the IC50 [2, 8] is reported as 0.058 µM, the IC90 [2, 9] is reported as 0.16 µM and the “Half-life” value ([3]; 15 μM) is reported as 43.2 min. For the same molecule, the “Compound remaining (%)” value [3] was 62% and the CLint scaled at 15 μM [4] was 14.4 mL/min/kg.
With COc1ccc(-c2nsc(SCC(=O)NCC3CCCC3)n2)cc1 [Compound I-38, reference compound] the IC50 [2] was 0.447 µM, the IC90 [2] was 1.25 µM and the “toxicity (survival of zebra fish embryos scored by heartbeat)” value [5] was “somewhat less toxic than I-40 and I-41”.
For CCCNC(=O)CSc1nc(-c2ccc(OC)cc2)ns1 [Compound I-3], the IC50 [2, 8] was 0.123 µM, the IC90 [2, 9] was 0.63 µM and the “increase of activity as compared to compound I-12” value ([2]; tested on M. tuberculosis) was “four-fold”. For the same molecule, the “activity compared with Ethambutol (EMB)” value ([6]; 10 μM) was “as active as EMB”, the “activity compared with Streptomycin (STR)” value ([6]; 10 μM) was “higher activity than STR” and the “reduction of bacteria as compared to the DMSO control” value ([6]; 10 μM) was “approximately 100 fold”. The “concentration with significant decrease of bacterial load as compared to the DMSO control” value ([6]; THP-1 macrophages, MOI 1, day 5) was 1 µM, the “Half-life” value ([3]; 15 μM) was 9 min and the “Compound remaining (%)” value [3] was 11%. For the same molecule, the bacterial fluorescence [7] was “reduction of bacterial fluorescence to background levels” and the CLint scaled at 15 μM [4] was 67.4 mL/min/kg.
In the case of COc1ccc(-c2nsc(SCC(=O)NC(C)C)n2)cc1 [Compound I-9], the IC50 [2, 8] is reported as 0.152 µM and the IC90 [2, 9] is reported as 1.25 µM.
With CCCC(C)NC(=O)CSc1nc(-c2ccc(OC)cc2)ns1 (centres unmarked) [Compound I-29] the IC50 [2, 8] was 1.25 µM and the IC90 [2, 9] was 10 µM.
